The values below come from patent US10791740B2, “Enhancement of antibiotic efficacy” (priority 2014, dated 2020).

Assay [1] concerns tetracycline resistant E. coli. In kind it is cell-based, Escherichia coli. Particulars: for MIC: single agent, Table 5; for MIC (μM) of amphiphile alone: Tables 6 and 7. From the text:
(§1) Certain aspects are drawn to a method for increasing or enhancing the antimicrobial activity of an antimicrobial agent. As used herein, the “antimicrobial activity” of an antimicrobial agent is defined as the property of a substance to inhibit the growth and reproduction of a microbial organism or to kill it. Common terms generally applied to bacteria are bacteriostatic (stops growth) and bactericidal (kills bacteria). Depending on the concentrations applied, microbial growth can be slowed or stopped in comparison to concurrent experiments conducted in the absence of an antimicrobial agent. Depending on the concentrations applied, additional microbe death can occur in comparison to concurrent experiments conducted in the absence of an antimicrobial agent. […] The MIC is the lowest concentration of any agent having antimicrobial activity that inhibits the growth of a microorganism as judged by visual inspection. MIC can be determined by inoculating media with the organism and adding the antimicrobial agent diluted successively in half.
(§2) Among the organisms studied are several strains of the bacterium E. coli.
N,N′-Dibenzyl-4,13-diaza-18-crown-6 is referred to in the table as dibenzyldiaza-18-crown-6.
(§3) Minimal Inhibitory Concentration (MIC) Procedure. […] Prepare initial concentration of all the compounds required. • 5. […] Vortex each test tube for 2-3 seconds. • 11.

In assay [2] the test system is E. coli. The following applies: Journal of the American Chemical Society 2002, 124, 9022-3, cited from earlier work.
In assay [3] the test system is DH5α E. coli. Nature of the assay: Inhibitory concentration (IC50) to DH5α E. coli cells (FIG. 4). In kind it is cell-based, Escherichia coli. Particulars: at 180 μM. From the text: Two commonly used abbreviations are LD50 and IC50. The former is the concentration of an agent that comprises a lethal dose to 50% of the organism under study. The latter is the concentration of agent that inhibits growth of 50% of the organism under study. […] The abscissa represents the number of (CH2) groups in spacer chains. The ordinate is logarithmic and reflects the concentrations (in μM) of the various lariat ethers used.

The test system of another assay is S. cerevisiae. The assay can be described thus: MIC determination, S. cerevisiae (Table 1). The class given is cell-based, Saccharomyces cerevisiae. The following applies: single agent. The text has this: (§4) Certain aspects are drawn to a method for increasing or enhancing the antimicrobial activity of an antimicrobial agent. As used herein, the “antimicrobial activity” of an antimicrobial agent is defined as the property of a substance to inhibit the growth and reproduction of a microbial organism or to kill it. Common terms generally applied to bacteria are bacteriostatic (stops growth) and bactericidal (kills bacteria). Depending on the concentrations applied, microbial growth can be slowed or stopped in comparison to concurrent experiments conducted in the absence of an antimicrobial agent. Depending on the concentrations applied, additional microbe death can occur in comparison to concurrent experiments conducted in the absence of an antimicrobial agent. The results of minimum inhibitory concentration (MIC) evaluations and growth curves are presented herein and the conditions are specified. The MIC is the lowest concentration of any agent having antimicrobial activity that inhibits the growth of a microorganism as judged by visual inspection. MIC can be determined by inoculating media with the organism and adding the antimicrobial agent diluted successively in half. […] Reference herein to increasing or enhancing activity, efficacy, potency, and the like are used interchangeably to mean that when the synthetic amphiphile is present, the ability of the antimicrobial agent to inhibit the growth of or to kill an organism will be manifested at a concentration lower than would be required to achieve the same results in the absence of said synthetic amphiphile.
(§5) Among the organisms studied are several strains of the bacterium E. coli. […] Experiments were conducted to determine the MIC values for the synthetic amphiphiles known as lariat ethers according to the procedures described in Antimicrobial M07-A9: Methods for Dilution Antimicrobial Susceptibility Tests for Bacteria that Grow Aerobically; Clinical and Laboratory Standards Institute, 2012; Vol. 32, 67 pp. MIC values so determined for several lariat ethers and for several antibiotics are shown in Table 1.

The next assay has as its system B. stubtilis. The assay can be described thus: MIC determination, B. subtilis (Table 1). In kind it is cell-based, Bacillus subtilis. Particulars: single agent.
From the text: as §4, §5

The subject of assay [4] is E. coli. Nature of the assay: MIC determination, E. coli (Table 1). The class given is cell-based, Escherichia coli. Particulars: single agent.
From the text: as §1, §2, §3

Assay [5] concerns DH5α E. coli. Nature of the assay: MIC of single agents against DH5α E. coli. In kind it is cell-based, Escherichia coli. The following applies: previous studies.
From the text: as §1, §2, §3

Assay [6] concerns K-12 E. coli. Nature of the assay: MIC of single agents against K-12 E. coli.
In assay [7] the test system is DH5α E. coli. Nature of the assay: Combination of lariat ether and antibiotic against DH5α E. coli. The following applies: 0.4 vol-% DMSO.
Assay [8] has as its system K-12 E. coli. Nature of the assay: Combination of amphiphile and antibiotic against K-12 E. coli.
The subject of assay [9] is tetracycline resistant E. coli.

≈ marks a conversion by molar mass, not a printed value. Read-outs that look alike come from different tables or passages of the source. Some results are limits rather than exact numbers.

Regarding `c1ccc(CN2CCOCCOCCN(CCCCCCCCCCCCN3CCOCCOCCN(CCCCCCCCCCCCN4CCOCCOCCN(Cc5ccccc5)CCOCCOCC4)CCOCCOCC3)CCOCCOCC2)cc1` [C12 hydraphile], in assay [1], the MIC (usually the smallest concentration in the dilution series that meets the test's criterion for growth inhibition) came to 5 ± 0.5 µM (≈ 6.5 µg/mL). Also, the “MIC (μM) of amphiphile alone” value in assay [1] (tetracycline resistant E. coli) came to 5 µM. Moreover, the entries for the “toxicity to E. coli” value in the assay on E. coli [2] (listed as C12 benzyl hydraphile) and with E. coli [2] (listed as benzyl C12 hydraphile) were “killed E. coli” and “killed the bacteria”, respectively.

For the compound “N,N′-di-n-tetradecyl-4,13-diaza-18-crown-6 [C14 lariat ether]”, the “activity against E. coli” value in the assay with DH5α E. coli [3] was “inactive”. The “MIC (μM) S. cerevisiae” value in the assay on S. cerevisiae was >300 µM. In addition, in the assay on B. stubtilis, the “MIC (μM) B. stubtilis” value is >300 µM. The MIC in the assay on E. coli [4] is reported as >300 µM.

“N,N′-di-n-dodecyl-4,13-diaza-18-crown-6 [C12 lariat ether]”: the “toxicity to DH5α E. coli cells” value with DH5α E. coli [5] is “did not show toxicity”. Moreover, the “MIC (μM) of amphiphile alone” value (in assay [1] (tetracycline resistant E. coli); in the assay with K-12 E. coli [6]) was >512 µM in each case. In addition, the “MIC (μM) S. cerevisiae” value in the assay on S. cerevisiae is 2.5 µM. Besides, the “MIC (μM) B. stubtilis” value in the assay on B. stubtilis was 2.5 µM. In addition, in the assay on E. coli [4], the MIC was >300 µM.

For the compound `CN(C)[C@@H]1C(O)=C(C(N)=O)C(=O)[C@@]2(O)C(O)=C3C(=O)c4c(O)cccc4[C@@](C)(O)[C@H]3C[C@@H]12` [tetracycline, reference compound], the “Antibiotic Used (μM) in combination” value is 3 µM in the assay with DH5α E. coli [7] (tetracycline with 4 μM n-C11 lariat ether); 1 µM in the assay with DH5α E. coli [7] (tetracycline with 12 μM n-C11 lariat ether); 0.25 µM with DH5α E. coli [7] (tetracycline with 16 μM n-C11 lariat ether); 1.5 µM with DH5α E. coli [7] (tetracycline with 18 μM n-C11 lariat ether); 2.5 µM in the assay with K-12 E. coli [8] (Tetracycline with 6 μM C11 lariat ether); 175 µM in assay [9] (Tetracycline with 8 μM C11 lariat ether). The “Antibiotic Used (μM) in combination” value in [9] (Tetracycline with 12 μM C11 lariat ether), in [9] (Tetracycline with 16 μM C11 lariat ether) and in assay [9] (Tetracycline with 18 μM C11 lariat ether) was 87 µM each time. Moreover, the “MIC (μM) of antibiotic alone” value was ~900 µM in assay [1] (tetracycline resistant E. coli) and 6 µM in the assay with K-12 E. coli [6].

Take `CC[C@H]1OC(=O)[C@H](C)[C@@H](O[C@H]2C[C@@](C)(OC)[C@@H](O)[C@H](C)O2)[C@H](C)[C@@H](O[C@@H]2O[C@H](C)C[C@H](N(C)C)[C@H]2O)[C@](C)(O)C[C@@H](C)C(=O)[C@H](C)[C@@H](O)[C@]1(C)O` [erythromycin, reference compound]: the MIC in the assay on E. coli [4] (Escherichia coli) was > 400 µM.

For the compound `CO[C@H]1/C=C/O[C@@]2(C)Oc3c(C)c(O)c4c(O)c(c(/C=N/N5CCN(C)CC5)c(O)c4c3C2=O)NC(=O)/C(C)=C\C=C\[C@H](C)[C@H](O)[C@@H](C)[C@@H](O)[C@@H](C)[C@H](OC(C)=O)[C@@H]1C` [rifampicin, reference compound], the “Antibiotic Used (μM) in combination” value in the assay with DH5α E. coli [7] (rifampicin with 8 μM n-C11 lariat ether) was 15 µM; in the assay on DH5α E. coli [7] (rifampicin with 12 μM n-C11 lariat ether), 6 µM; in the assay on DH5α E. coli [7] (rifampicin with 16 μM n-C11 lariat ether), 6 µM; in the assay with DH5α E. coli [7] (rifampicin with 18 μM n-C11 lariat ether), 3 µM; in the assay on K-12 E. coli [8] (Rifampicin with 6 μM C11 lariat ether), 10 µM. In the assay with K-12 E. coli [6], the “MIC (μM) of antibiotic alone” value was found to be 20 µM.

`NC[C@H]1O[C@H](O[C@H]2[C@H](O)[C@@H](O[C@H]3O[C@H](CO)[C@@H](O)[C@H](N)[C@H]3O)[C@H](N)C[C@@H]2N)[C@H](N)C[C@@H]1O` [tobramycin, reference compound] displayed an MIC with E. coli [4] (Escherichia coli) of 15 µM (≈ 7.01 µg/mL).

For `c1ccc(CN2CCOCCOCCN(CCCCCCCCCCCCCCN3CCOCCOCCN(CCCCCCCCCCCCCCN4CCOCCOCCN(Cc5ccccc5)CCOCCOCC4)CCOCCOCC3)CCOCCOCC2)cc1` [C14 hydraphile], in assay [1], the “MIC” value was 2 ± 0.125 µM (≈ 2.71 µg/mL). In addition, the “MIC (μM) of amphiphile alone” value in assay [1] (tetracycline resistant E. coli) stood at 2 µM.
